Consider three compounds from US20150202203A1, “Method of Treating Gastrointestinal Stromal Tumors” (Novartis AG, priority 2012, published 2015).

Entries after “also recorded” stand apart in the source; their conditions may differ. Like-named read-outs stand apart in the source and are kept apart here.

In assay [1] the test system is GIST882 cells.
Text: (§1) GIST882 was established from an untreated human GIST with a homozygous missense mutation in KIT exon 13, encoding a K642E mutant KIT protein (Tuveson D A, Willis N A, et al. Oncogene 2001; 20: 5054-5058). […] GIST48 has a primary homozygous exon 11 missense mutation (V560D) and a secondary heterozygous exon 17 missense mutation (D820A). GIST430 has a primary heterozygous exon 11 in-frame deletion and a secondary heterozygous exon 13 missense mutation (V654A). […] It was established from a metastatic human GIST with a heterozygous deletion of 57 bases in exon 11 of KIT (Taguchi T, Sonobe H, Toyonaga S, et al. Lab Invest 2002; 82: 663-665).
(§2) 10,000 cells suspended in 80 μl media were seeded into each well of a 96-well cell-culture plate and grown for 24 hours prior to treatment. 10 μl of 60 μg/mL heparin (Sigma Catalog # H3149) was added to each well, and then 10 μl of 50 μg/mL FGF2 (R&D Catalog #233-FB/CF) or media was added to each well of the plates. 10 μl of each of the compound dilutions described above and 10 μl of media were added to wells to a final volume 120 μl such that all pair-wise combinations as well as the single agents were represented. Cells were incubated for 72 hrs at 37° C. in a 5% CO2 incubator following compound addition. Cell proliferation was measured using the CellTiter-Glo luminescent cell viability assay (Promega catalog # G755B) and Victor4 plate reader (Perkin Elmer).
The subject of assay [2] is GIST430 cells. The settings on record: Imatinib combined with Dovitinib, 72 hrs. On the procedure:
GIST-T1 was obtained from Kochi Medical School, Kochi, Japan.
GIST882 cells were cultured in RPMI-1640 (ATCC Catalog #30-2001) supplemented with 15% FBS and 1% L-glutamine, GIST48 cells in F10 (Gibco/Invitrogen Catalog #11550-043) supplemented with 15% FBS, 0.5% Mito+ (BD Bioscience Catalog #355006), 1% BPE (BD Bioscience/Fisher Catalog#354123) and 1% L-glutamine, GIST430 cells in IMEM (Gib-co/Invitrogen Catalog #12440-053) supplemented with 15% FBS and 1% L-glutamine, and GIST-T1 cells in DMEM (Gibco/Invitrogen Catalog #11965) supplemented with 10% FBS.
10,000 cells suspended in 80 μl media were seeded into each well of a 96-well cell-culture plate and grown for 24 hours prior to treatment. 10 μl of 60 μg/mL heparin (Sigma Catalog # H3149) was added to each well, and then 10 μl of 50 μg/mL FGF2 (R&D Catalog #233-FB/CF) or media was added to each well of the plates. 10 μl of each of the compound dilutions described above and 10 μl of media were added to wells to a […] such that all pair-wise combinations as well as the single agents were represented.

The subject of assay [3] is GIST-T1 cells. Briefly: CellTiter-Glo cell viability assay, GIST-T1. (In ATP-based viability assays light output follows the ATP content of the culture.)
Text: as §1, §2
Assay [4] deals with GIST. The settings on record: cited from earlier work.
Assay [5] relates to KIT. Briefly: KIT inhibition by Western blot in GIST cell lines. In kind it is cell-based, human. The settings on record: GIST-T1, GIST882 and GIST48; compared with dovitinib. (In western blotting, separated proteins are transferred to a membrane and probed.)
Experimental: Protein lysates were prepared from cell monalayers using RIPA buffer (Cell Signaling Technology Catalog #9806) according to the procedure described by the manufacturer. Antibod-ies to detect phospho-KIT (Catalog #3073S), total KIT (Catalog #3308), phospho-AKT S473 (Catalog #4058), total AKT (Catalog #9272), phospho-ERK (Catalog #9101), total ERK (Catalog #9107) and phospho-FRS2 (Catalog #3864) were purchased from Cell Signaling Technology. Antibody to GAPDH (Catalog # MAB374) was purchased from Millipore and anti-FRS2(H-91) (Catalog #sc-8318) from Santa Cruz. Bound antibody was detected using the LI-COR Odyssey Infrared Imaging System.
[6] abbreviates: Imatinib combined with Dovitinib, 72 hrs.
Setting [7] is: absence of added FGF2, single agent.
[8] abbreviates: presence of added FGF2, single agent.

`CN1CCN(c2ccc3nc(-c4c(N)c5c(F)cccc5[nH]c4=O)[nH]c3c2)CC1` [Dovitinib, 4-amino-5-fluoro-3-[6-(4-methylpiperazin-1-yl)-1H-benzimidazol-2-yl]quinolin-2(1H)-one]: the “Combination Index for 70% inhibition of GIST cell proliferation” value was determined as 0.965 in assay [1] (setting [6]), 0.624 in assay [2] and 0.835 in assay [3] (setting [6]). The “Synergy Score for inhibition of GIST cell proliferation” value in assay [1] (setting [6]) came out at 0.321; in assay [2], 0.635; in assay [3] (setting [6]), 0.422. The growth inhibition entry in assay [1] (setting [7]) is recorded as “effective”; in assay [1] (setting [8]), “restores maximum growth inhibition; also recorded: maximum inhibition was restored to levels comparable to the absence of FGF2”; in assay [3] (setting [7]), “effective”; in assay [3] (setting [8]) it was “restores maximum growth inhibition; also recorded: maximum inhibition was restored to levels comparable to the absence of FGF2”; in assay [3] (presence of added FGF2, single agent, listed as Dovtinib), “same level of maximum inhibition in the presence or absence of added FGF2”.

With `Cc1ccc(NC(=O)c2ccc(CN3CCN(C)CC3)cc2)cc1Nc1nccc(-c2cccnc2)n1` [Imatinib, 4-(4-methylpiperazin-1-ylmethyl)-N-[4-methyl-3-(4-(pyridin-3-yl)pyrimidin-2-ylamino)phenyl]-benzamide], the “progression-free survival (PFS)” value in assay [4] (800 mg/day compared to 400 mg/day, advanced GIST harboring KIT exon 9 mutations) is on record as “significantly improves”. In assay [4] (adjuvant 400 mg once daily, 36 months vs 12 months (SSGXVIII/AIO)), the “RFS and overall survival” value was “superior to 12 months”. Further, the “recurrence-free survival (RFS)” value in assay [4] (adjuvant 400 mg/day for 12 months vs placebo, after complete resection (ACOSOGZ9001)) is recorded as “significantly prolonged RFS”. For the same compound, the growth inhibition entry in assay [1] (setting [7]) is reported as “efficacious”; in assay [1] (setting [8]), “less sensitive”; in assay [3] (setting [7]), “efficacious”; in assay [3] (setting [8]) it was “less sensitive”. The “KIT inhibition (Western blot)” value in assay [5] is on record as “more potent KIT inhibitor than dovitinib”.

Regarding `Cc1cn(-c2cc(NC(=O)c3ccc(C)c(Nc4nccc(-c5cccnc5)n4)c3)cc(C(F)(F)F)c2)cn1` [Nilotinib, 4-methyl-3-[[4-(3-pyridinyl)-2-pyrimidinyl]amino]-N-[5-(4-methyl-1H-imidazol-1-yl)-3-(trifluoromethyl)phenyl]benzamide], the growth inhibition result in assay [1] (setting [7]) is listed as “sensitive to KIT inhibition”; in assay [1] (setting [8]) it was “less sensitive”; in assay [3] (setting [7]), “inhibits growth of GIST-T1 cells”; in assay [3] (absence of added FGF2, single agent, listed as nilotinib), “sensitive to KIT inhibition”; in assay [3] (setting [8]), “less sensitive; also recorded: significantly decreased”. The “GI50 shift in the presence of added FGF2” value in assay [1] (with vs without added FGF2) and in assay [3] (with vs without added FGF2) was “greater than 10 fold” in each case.
